In patent US20100261606A1, “Homogeneous and Storage-Stable Mixtures of Different Active Plant Protection Agent Granule Particles” (priority 2007, published 2010):
Values joined by “and” are separate entries in the source; they are usually repeats but may differ in a detail not shown here. Equal entries are not always repeated. Where two headings read alike, the source gives them in different places.

Type: physicochemical
Text: This therefore allows the use according to the invention of these mixture packs for plant protectant active substances which had previously shown to be “incompatible” in mixture with other active substances on or in a granule particle. Determining the “incompatibility” of individual active substances in an active substance mixture is effected by simply measuring the remaining residual amounts of active substance after a predetermined storage period. The reasons for this active substance “incompatibility” with other active substances may be based on a very wide range of factors. However, it poses a serious problem for formulation research, when active substance mixtures required by the market cannot be realized due to this problem. [table]

[1] = in Granule coformulation (2), prior art, n = 1
[2] = in Granule mixture (1), according to the invention, n = 3

Compound	Absolute content after 2 months' storage at 40° C. [1] [% by weight]	Absolute content at the beginning of the storage [1] [% by weight]	Percentage change after 2 months' storage at 40° C. [1] [%]	Absolute content after 2 months' storage at 40° C. [2]	Absolute content at the beginning of the storage [2]	Percentage change after 2 months' storage at 40° C. [2]	Degradation during storage (in words)	Change in content during storage (in words) (in granule mixture (according to the invention))
O=C(Nc1ccc(F)cc1F)c1cccnc1Oc1cccc(C(F)(F)F)c1 [Diflufenican, diflufenican]	3.79	3.79	0.0	12.8 % by weight and 12.1 % by weight	12.5 % by weight and 12.3 % by weight and 12.1 % by weight	–	–	–
CC(C)N(C(=O)COc1nnc(C(F)(F)F)s1)c1ccc(F)cc1 [Flufenacet, flufenacet]	12.10	12.40	−2.4	39.2 % by weight and 38.3 % by weight and 39.9 % by weight	39.8 % by weight and 40.0 % by weight and 40.6 % by weight	−1.5% and −4.3% and −1.7%	–	–
COc1nc(C)nc(NC(=O)NS(=O)(=O)c2cc(I)ccc2C(=O)O)n1 [Iodosulfuron, iodosulfuron]	0.039	0.135	−71.0	0.367 % by weight and 0.360 % by weight and 0.382 % by weight	0.330 % by weight and 0.312 % by weight and 0.378 % by weight	–	severe degradation	no appreciable change
